# Data taken from patent publication US9096500B2, “Acyl sulfonamide compounds” (Pfizer Limited, priority 2010, dated 2015).
# Counter-ions that a name gives are not always drawn.
# Target: T1, Nav1.7 (or SCN9A) channel (Homo sapiens, UniProt Q15858)
# T1 construct: expressed in transfected cells
# Test: Nav1.7 (hSCN9A) electrophysiology assay, PatchXpress platform
# Type: cell-based
# Conditions: estimated IC50 from single point electrophysiology data, HEK cells stably expressing hSCN9A, held at V1/2 of inactivation, read-out: Nav1.7 EIC50
# Procedure, shortened: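 HEK cells stably expressing hSCN9A were recorded by whole-cell voltage clamp, including on PatchXpress, at 22–24°C with extracellular solution at pH 7.4. A 20 msec step to 0 mV followed an 8 s conditioning prepulse to the empirically determined inactivation V1/2. Inhibition was taken from current amplitude before vs after compound.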
# T1 sequence (Q15858 whole entry): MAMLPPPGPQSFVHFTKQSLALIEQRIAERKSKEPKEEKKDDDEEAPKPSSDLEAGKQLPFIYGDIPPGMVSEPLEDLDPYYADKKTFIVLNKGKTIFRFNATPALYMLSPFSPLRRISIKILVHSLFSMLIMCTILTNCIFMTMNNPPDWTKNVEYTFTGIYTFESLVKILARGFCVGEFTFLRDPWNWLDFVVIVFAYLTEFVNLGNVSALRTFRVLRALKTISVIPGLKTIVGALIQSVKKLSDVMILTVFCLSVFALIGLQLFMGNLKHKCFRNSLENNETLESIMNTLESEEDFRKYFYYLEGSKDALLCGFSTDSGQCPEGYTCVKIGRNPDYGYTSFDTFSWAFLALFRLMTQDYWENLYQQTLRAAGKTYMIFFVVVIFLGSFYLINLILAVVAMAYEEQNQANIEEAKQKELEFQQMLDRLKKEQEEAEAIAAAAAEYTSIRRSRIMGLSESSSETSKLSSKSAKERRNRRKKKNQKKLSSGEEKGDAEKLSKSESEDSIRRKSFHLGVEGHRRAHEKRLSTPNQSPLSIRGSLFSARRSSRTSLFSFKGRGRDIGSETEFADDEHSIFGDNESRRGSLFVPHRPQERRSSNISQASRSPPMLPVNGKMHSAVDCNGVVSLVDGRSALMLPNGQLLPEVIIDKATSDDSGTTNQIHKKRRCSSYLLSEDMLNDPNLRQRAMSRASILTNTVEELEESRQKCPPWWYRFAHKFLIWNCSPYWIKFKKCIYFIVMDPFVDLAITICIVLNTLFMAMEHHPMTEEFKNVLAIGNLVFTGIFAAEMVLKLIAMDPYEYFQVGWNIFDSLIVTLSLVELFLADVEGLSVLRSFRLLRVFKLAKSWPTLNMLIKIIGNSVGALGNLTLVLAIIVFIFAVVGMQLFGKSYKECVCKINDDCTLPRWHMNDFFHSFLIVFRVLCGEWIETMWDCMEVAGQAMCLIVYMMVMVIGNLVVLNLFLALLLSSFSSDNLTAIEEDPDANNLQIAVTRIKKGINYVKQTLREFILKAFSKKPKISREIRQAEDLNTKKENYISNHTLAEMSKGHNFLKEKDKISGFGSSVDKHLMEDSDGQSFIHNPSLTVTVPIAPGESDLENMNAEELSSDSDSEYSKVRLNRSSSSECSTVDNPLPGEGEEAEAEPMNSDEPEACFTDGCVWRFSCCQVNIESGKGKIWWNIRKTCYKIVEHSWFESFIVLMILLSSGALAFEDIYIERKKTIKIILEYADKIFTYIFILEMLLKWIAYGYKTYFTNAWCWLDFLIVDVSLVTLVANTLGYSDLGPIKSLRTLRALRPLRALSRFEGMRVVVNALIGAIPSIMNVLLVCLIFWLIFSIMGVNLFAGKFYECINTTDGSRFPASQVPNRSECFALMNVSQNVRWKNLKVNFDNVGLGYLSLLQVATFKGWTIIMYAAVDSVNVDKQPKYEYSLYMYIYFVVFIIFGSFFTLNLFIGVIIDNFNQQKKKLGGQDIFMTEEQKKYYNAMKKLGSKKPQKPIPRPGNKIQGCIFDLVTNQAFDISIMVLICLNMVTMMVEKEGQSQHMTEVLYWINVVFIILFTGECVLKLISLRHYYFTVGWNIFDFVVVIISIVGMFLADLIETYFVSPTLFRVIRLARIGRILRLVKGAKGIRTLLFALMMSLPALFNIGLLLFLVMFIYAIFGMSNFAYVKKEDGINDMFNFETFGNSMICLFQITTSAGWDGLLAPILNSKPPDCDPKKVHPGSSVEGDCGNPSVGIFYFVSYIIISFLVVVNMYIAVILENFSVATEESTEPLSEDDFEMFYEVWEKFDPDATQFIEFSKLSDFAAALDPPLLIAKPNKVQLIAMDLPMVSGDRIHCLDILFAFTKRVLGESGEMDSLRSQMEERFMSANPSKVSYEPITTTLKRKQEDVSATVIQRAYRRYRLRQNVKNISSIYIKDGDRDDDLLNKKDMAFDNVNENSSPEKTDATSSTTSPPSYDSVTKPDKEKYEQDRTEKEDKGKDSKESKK
row,IC50 [µM],SMILES
1,0.013,"CS(=O)(=O)NC(=O)c1cc(F)c(COc2ccc(OC(F)(F)F)c(Cl)c2)cc1F [Example 53, 4-((3-Chloro-4-(trifluoromethoxy)phenoxy)methyl)-2,5-difluoro-N-(methylsulfonyl)benzamide]"
2,3.8,"CS(=O)(=O)NC(=O)c1cc(F)c(OCc2cccc(Cl)c2Cl)cc1F [Example 214, 4-[(2,3-dichlorobenzyl)oxy]-2,5-difluoro-N-(methylsulfonyl)benzamide]"
3,0.57,"CS(=O)(=O)NC(=O)c1ccc(OCc2ccc(OC(F)(F)F)cc2)cc1 [Example 181, N-(methylsulfonyl)-4-{[4-(trifluoromethoxy)benzyl]oxy}benzamide]"
4,> 3,"CS(=O)(=O)NC(=O)c1ccc(OCc2ccccc2F)cc1 [Example 180, 4-[(2-fluorobenzyl)oxy]-N-(methylsulfonyl)benzamide]"
5,0.14,"CS(=O)(=O)NC(=O)c1cc(F)c(COc2cccc(C(F)(F)F)c2)cc1F [Example 109, 2,5-difluoro-N-(methylsulfonyl)-4-{[3-(trifluoromethyl)phenoxy]methyl}benzamide]"
6,1.7,"COc1cc(Cl)ccc1OCc1cc(F)c(C(=O)NS(C)(=O)=O)cc1F [Example 15, 4-((4-Chloro-2-methoxyphenoxy)methyl)-2,5-difluoro-N-(methylsulfonyl)benzamide Diethylamine salt]"
7,5,"COc1cc(C)ccc1COc1cc(F)c(C(=O)NS(C)(=O)=O)cc1F [Example 200, 2,5-difluoro-4-[(2-methoxy-4-methylbenzyl)oxy]-N-(methylsulfonyl)benzamide]"
8,0.57,"CS(=O)(=O)NC(=O)c1cc(F)c(COc2cc(F)ccc2F)cc1F [Example 55, 4-[(2,5-Difluorophenoxy)methyl]-2,5-difluoro-N-(methylsulfonyl)benzamide]"
9,0.47,"CS(=O)(=O)NC(=O)c1cc(F)c(COc2cc(Cl)ccc2Cl)cc1F [Example 134, 4-[(2,5-dichlorophenoxy)methyl]-2,5-difluoro-N-(methylsulfonyl)benzamide]"
10,1.1,"CS(=O)(=O)NC(=O)c1cc(F)c(COc2cc(F)c(F)cc2F)cc1F [Example 57, 2,5-Difluoro-N-(methylsulfonyl)-4-[(2,4,5-trifluorophenoxy)methyl]benzamide]"
11,9.8,"COc1ccc(COc2cc(F)c(C(=O)NS(C)(=O)=O)cc2F)cc1Cl [Example 68, 4-(3-Chloro-4-methoxybenzyloxy)-2,5-difluoro-N-(methylsulfonyl)benzamide]"
12,2.1,"CS(=O)(=O)NC(=O)c1ccc(OCc2cc(Cl)ccc2Cl)cc1 [Example 175, 4-[(2,5-dichlorobenzyl)oxy]-N-(methylsulfonyl)benzamide]"
13,0.029,"CS(=O)(=O)NC(=O)c1cc(Cl)c(COc2ccc(OC(F)(F)F)c(Cl)c2)cc1F [Example 60, 5-Chloro-4-((3-chloro-4-(trifluoromethoxy)phenoxy)methyl)-2-fluoro-N-(methylsulfonyl)benzamide]"
14,6.5,"CS(=O)(=O)NC(=O)c1cc(Cl)c(OCc2ccc(Cl)cc2)cc1F [Example 84, 5-chloro-4-[(4-chlorobenzyl)oxy]-2-fluoro-N-(methylsulfonyl)benzamide]"
15,> 3,"COc1ccc(F)c(COc2cc(F)c(C(=O)NS(C)(=O)=O)cc2F)c1 [Example 205, 2,5-difluoro-4-[(2-fluoro-5-methoxybenzyl)oxy]-N-(methylsulfonyl)benzamide]"
16,2.3,"CS(=O)(=O)NC(=O)c1cc(F)c(COc2ccc(F)cc2C2CC2)cc1F [Example 145, 4-[(2-cyclopropyl-4-fluorophenoxy)methyl]-2,5-difluoro-N-(methylsulfonyl)benzamide]"
17,3.9,"COc1ccc(COc2cc(F)c(C(=O)NS(C)(=O)=O)cc2Cl)cc1 [Example 71, 5-chloro-2-fluoro-4-[(4-methoxybenzyl)oxy]-N-(methylsulfonyl)benzamide]"
18,0.59,"CS(=O)(=O)NC(=O)c1ccc(OCc2cccc(OC(F)(F)F)c2)cc1 [Example 92, N-(methylsulfonyl)-4-{[3-(trifluoromethoxy)benzyl]oxy}benzamide]"
19,2.2,"COc1ccc(Cl)c(OCc2cc(F)c(C(=O)NS(C)(=O)=O)cc2F)c1 [Example 122, 4-[(2-chloro-5-methoxyphenoxy)methyl]-2,5-difluoro-N-(methylsulfonyl)benzamide]"
20,4.3,"CS(=O)(=O)NC(=O)c1ccc(OCc2ccccc2C(F)(F)F)cc1 [Example 183, N-(methylsulfonyl)-4-{[2-(trifluoromethyl)benzyl]oxy}benzamide]"
21,< 0.3,"CS(=O)(=O)NC(=O)c1cc(Cl)c(COc2ccc(OC(F)F)c(Cl)c2)cc1F [Example 61, 5-Chloro-4-{[3-chloro-4-(difluoromethoxy)phenoxy]methyl}-2-fluoro-N-(methylsulfonyl)benzamide]"
22,1.7,"CS(=O)(=O)NC(=O)c1cc(F)c(OCc2ccccc2C(F)(F)F)cc1F [Example 220, 2,5-difluoro-N-(methylsulfonyl)-4-{[2-(trifluoromethyl)benzyl]oxy}benzamide]"

row,IC50 [µM],SMILES
1,5.1,"CS(=O)(=O)NC(=O)c1cc(F)c(COc2ccc(C#N)cc2F)cc1F [Example 104, 4-[(4-cyano-2-fluorophenoxy)methyl]-2,5-difluoro-N-(methylsulfonyl)benzamide]"
2,0.58,"CS(=O)(=O)NC(=O)c1cc(Cl)c(OCc2cccc(Cl)c2)cc1F [Example 86, 5-chloro-4-[(3-chlorobenzyl)oxy]-2-fluoro-N-(methylsulfonyl)benzamide]"
3,> 3,"CS(=O)(=O)NC(=O)c1cc(F)c(COc2ccc(Cl)cc2C#N)cc1F [Example 135, 4-[(4-chloro-2-cyanophenoxy)methyl]-2,5-difluoro-N-(methylsulfonyl)benzamide]"
4,3.8,"CS(=O)(=O)NC(=O)c1cc(F)c(OCc2ccc(F)cc2)cc1F [Example 216, 2,5-difluoro-4-[(4-fluorobenzyl)oxy]-N-(methylsulfonyl)benzamide]"
5,> 1,"Cc1ccc(COc2cc(F)c(C(=O)NS(C)(=O)=O)cc2F)cc1 [Example 196, 2,5-difluoro-4-[(4-methylbenzyl)oxy]-N-(methylsulfonyl)benzamide]"
6,> 1,"CS(=O)(=O)NC(=O)c1cc(F)c(OCc2cc(F)ccc2F)cc1F [Example 229, 4-[(2,5-difluorobenzyl)oxy]-2,5-difluoro-N-(methylsulfonyl)benzamide]"
7,> 3,"CS(=O)(=O)NC(=O)c1ccc(OCc2cccc(C#N)c2)c(Cl)c1 [Example 80, 3-chloro-4-[(3-cyanobenzyl)oxy]-N-(methylsulfonyl)benzamide]"
8,1.2,"Cc1ccc(COc2cc(F)c(C(=O)NS(C)(=O)=O)cc2F)cc1Cl [Example 228, 4-[(3-chloro-4-methylbenzyl)oxy]-2,5-difluoro-N-(methylsulfonyl)benzamide]"
9,> 3,"CS(=O)(=O)NC(=O)c1ccc(OCc2ccc(-n3cccn3)cc2)c(Cl)c1 [Example 90, 3-chloro-N-(methylsulfonyl)-4-{[4-(1H-pyrazol-1-yl)benzyl]oxy}benzamide]"
10,> 0.3,"CS(=O)(=O)NC(=O)c1ccc(OCc2ccc(Cl)cc2F)cc1 [Example 213, 4-[(4-chloro-2-fluorobenzyl)oxy]-N-(methylsulfonyl)benzamide]"
11,3.6,"CS(=O)(=O)NC(=O)c1ccc(OCc2ccc(F)cc2F)cc1 [Example 204, 4-[(2,4-difluorobenzyl)oxy]-N-(methylsulfonyl)benzamide]"
12,0.012,"CS(=O)(=O)NC(=O)c1cc(F)c(COc2ccc(Cl)c(OC(F)(F)F)c2)cc1F [Example 51, 4-((4-Chloro-3-(trifluoromethoxy)phenoxy)methyl)-2,5-difluoro-N-(methylsulfonyl)benzamide]"
13,2.4,"CS(=O)(=O)NC(=O)c1ccc(OCc2ccccc2)cc1 [Example 20, 4-(Benzyloxy)-N-(methylsulfonyl)benzamide Diethylamine salt]"
14,2.2,"CS(=O)(=O)NC(=O)c1cc(F)c(COc2ccccc2F)cc1F [Example 110, 2,5-difluoro-4-[(2-fluorophenoxy)methyl]-N-(methylsulfonyl)benzamide]"
15,2.1,"CS(=O)(=O)NC(=O)c1cc(F)c(OCc2ccc(F)cc2Cl)cc1F [Example 232, 4-[(2-chloro-4-fluorobenzyl)oxy]-2,5-difluoro-N-(methylsulfonyl)benzamide]"
16,6.1,"CS(=O)(=O)NC(=O)c1cc(F)c(COc2ccc(C#N)c(C#N)c2)cc1F [Example 103, 4-[(3,4-dicyanophenoxy)methyl]-2,5-difluoro-N-(methylsulfonyl)benzamide]"
17,0.29,CS(=O)(=O)NC(=O)c1ccc(OCc2ccc(Cl)c(Cl)c2)cc1 [Example 3]
18,0.76,"CS(=O)(=O)NC(=O)c1ccc(COc2cccc(Cl)c2)cc1 [Example 16, 4-((3-Chlorophenoxy)methyl)-N-(methylsulfonyl)benzamide Diethylamine salt]"
19,> 1,"CS(=O)(=O)NC(=O)c1ccc(OCc2c(F)cccc2Cl)cc1 [Example 182, 4-[(2-chloro-6-fluorobenzyl)oxy]-N-(methylsulfonyl)benzamide]"
20,12,"COc1cc(OCc2ccc(Cl)c(Cl)c2)ccc1C(=O)NS(C)(=O)=O [Example 12, 4-[(3,4-Dichlorobenzyl)oxy]-2-methoxy-N-(methylsulfonyl)benzamide]"
21,1.7,"CS(=O)(=O)NC(=O)c1cc(F)c(OCc2cccc3ccccc23)cc1F [Example 194, 2,5-difluoro-N-(methylsulfonyl)-4-(1-naphthylmethoxy)benzamide]"
22,> 1,"COc1ccc(C)cc1COc1cc(F)c(C(=O)NS(C)(=O)=O)cc1F [Example 219, 2,5-difluoro-4-[(2-methoxy-5-methylbenzyl)oxy]-N-(methylsulfonyl)benzamide]"

row,SMILES,IC50 [µM]
1,"CS(=O)(=O)NC(=O)c1cc(Cl)c(COc2ccc(Cl)c(Cl)c2)cc1F [Example 1, 5-Chloro-4-[(3,4-dichlorophenoxy)methyl]-2-fluoro-N-(methylsulfonyl)benzamide]",0.0095
